In general, EC50 refers to the concentration needed to bring the measured effect to its halfway point.

Entries after “also recorded” stand apart in the source; their conditions may differ. Read-outs that look alike come from different tables or passages of the source. Peptide text beside a SMILES is read from it. * marks the point of attachment. Myristoyl = CCCCCCCCCCCCCC(=O)*

Consider five compounds from US11066455B2, “Tmem100 peptides and variants thereof and their use in treating or preventing diseases or conditions” (The Johns Hopkins University, priority 2014, dated 2021).

For test [1], the target named is T1, TRPA1 (UniProt O75762).
T1 construct: other: cells expressing A1+V1; other: cells expressing A1+V1+Tmem100
Put plainly: Calcium imaging of HEK293T cells expressing TRPA1 and TRPV1 (MO or CA). It is filed as cell-based. How it is done: (§1) Calcium imaging assays were performed as previously described (Liu et al., 2009). Cells were loaded with 2 μM fura 2-acetomethoxy ester (Molecular Probes) for 30 min in the dark at room temperature or for 45 minutes at 37° C. for DRG and cell lines, respectively. After washing, cells were imaged at 340 and 380 nm excitation to detect intracellular free calcium under a fluorescent microscope (Nikon Eclipse TE2000-S) and Lambda 10B shutter (Sutter Instrument). The cells were bathed in calcium imaging buffer (pH 7.45, 130 mM NaCl, 3 mM KCl, 2.5 mM CaCl2, 10 mM HEPES, 10 mM glucose, 1.2 mM NaHCO3, with sucrose to increase osmolarity to 290 mOsm). The reagents and buffers were applied through a gravity perfusion system at a rate of […], including mustard oil (Sigma 377430), cinnamaldehyde (Sigma C80687), menthol (Sigma M2780), and capsaicin (Sigma M2028). Cells with high baseline 340/380 values (>1.5) were excluded for analysis. For DRG neurons, IB4 staining was performed in the chamber with the dilution of 1:200 (Molecular Probes 121412) for 160 seconds before washing off at the end of each test. Images were processed and analyzed with NIS-Elements BR 2.30 software (Nikon). A responsive cell was defined as one that with greater than a 20% increase in the 340/380 ratio above the baseline. Intracellular calibration for calcium was performed as previously described (Akopian et al., 2007). The data was analyzed with the experimenter blinded to the genotypes or constructs transfected.
(§2) DRG from 3 to 4-week old mice were collected in cold DH10 medium (90% DMEM/F-12, 10% FBS, 100 U/ml penicillin, and 100 μg/ml Streptomycin, Gibco) and treated with enzyme solution in HBSS containing collagenase (1.65 mg/mL, Worthington CLS I) and dispase (3.55 mg/mL, GIBCO 17105-041) at 37° C. for 30 minutes. After trituration and centrifugation, cells were resuspended in DH10, plated on glass coverslips coated with poly-D-lysine (0.5 mg/ml, Stoughton, Mass.) and laminin (10 μg/ml, Invitrogen), and cultured overnight in an incubator at 37° C. The neurons were tested within 24 hours. HEK293T, COS-7, and CHO cells were cultured in a medium consisting of 90% DMEM, 10% FBS, 100 U/mL penicillin, and 100 μg/ml Streptomycin. GlutaMAX (Gibco 35050-061) was also added for CHO cells. For calcium imaging, the cells were plated on glass coverslips coated with poly-D-lysine (0.5 mg/ml, Stoughton, Mass.). In the HEK cell studies the denominator is the cells expressing both TRPA1, TRPV1, and the designated constructs (i.e. Tmem100 or Tmem100-3Q mutant). mCherry:TRPV1:Tmem100 was transfected in 1:8:8 ratio into TRPA1 stable cell line (obtained from N. Tigue from GlaxoSmithKline) and used mCherry as the marker for the cells expressing the constructs 18 hours after transfection with Lipofectamine 2000. The transfection efficiency for Tmem100+TRPV1+TRPA1 triple-positive cells is 27±3%. This efficiency was determined by mCherry(+) divided by total number of cells in the bright fields.
(§3) The sequence from the last 28 amino acids of the C-terminus of the Tmem100-3Q mutant protein was synthesized and myristoylated at its N-terminus (myr-[…]-COOH) (SEQ ID NO: 8) by Twentyfirst Century Biochemicals. […] For the calcium imaging assay, the peptides were added to the calcium imaging buffer with a final concentration of 200 nM and incubated for at least […] at room temperature. For the mice behavioral assays, the peptides (5 μL, 2 mM) were injected subcutaneously in the hindpaw at least 30 minutes before testing. For the rat behavior assays, human T100-3Q (h-T100), a palmitoylated cell permeable peptide mutated based on the C terminus of human sequence in Tmem100, was applied. The sequence is Palmitoyl-[…]-COOH (SEQ ID NO: 7).

The subject of test [2] is neuropathic mechanical hypersensitivity in SNL rats. It is filed as in vivo, rat.
Description: An modified L5 SNL model was produced as described in previously (He et al., 2014; Shechter et al., 2013). Male Sprague-Dawley rats (200-350 g, Harlan, Indianapolis, Ind.) were anesthetized with 2% isoflurane. The left L5 spinal nerve was ligated with a 6-0 silk suture and cut distally. The muscle layer was closed with 4-0 chromic gut suture and the skin closed with metal clips. For intrathecal catheter implantation, a small slit was cut in the atlanto-occipital membrane of rats, into which a saline-filled piece of PE-10 tubing (6-7 cm) was inserted (He et al., 2014). […] Hypersensitivity to punctuate mechanical stimulation was determined with the up-down method by using a series of von Frey filaments (0.38-15.1 g) applied for 4-6 seconds to the test area on the plantar surface of the hindpaw (Chaplan et al., 1994; He et al., 2014). The PWT was determined according to the formula provided by Dixon (Dixon, 1980). […] HC-030031 was purchased from Tocris Bioscience (Bristol, UK). Both drugs were dissolved in 10% dimethylsulfoxide (DMSO), 5% Tween 80 and 85% sterile saline solution. The final working solution which was injected by intrathecal route contained <1% DMSO. The number of animals used in each study was based on experience with similar studies and power analysis calculations. Animals were randomized to the different treatment groups and blinded the experimenter to drug treatment to reduce selection and observation bias. After the experiments were completed, no data point was excluded. STATISTICA 6.0 software (StatSoft, Inc., Tulsa, Okla.) was used to conduct all statistical analyses. The Tukey honestly significant difference (HSD) post-hoc test was used to compare specific data points. Bonferroni correction was applied for multiple comparisons. Two-tailed tests were performed, and data are expressed as mean±SEM; P<0.05 was considered significant in all tests.
as §3

Test [3] relates to T2, TRPA1.
T2 construct: percentage of cells responsive to CA; other: shortened CPP 2 μM; CA 10 μM; HEK293 TRPA1+TRPV1; vs scrambled; percentage of cells responsive to MO; other: peptide 200 nM pre-treatment; 500 nM MO; HEK293T TRPA1+TRPV1; percentage of cells that respond to 100 nM MO and 10 μM CA; other: HEK293T TRPA1+TRPV1, Tmem100-3Q-transfected vs lacki; reduction in the percentage of cells responding to MO
In words: Calcium imaging of HEK293T cells expressing TRPA1 and TRPV1 (MO or CA). It is filed as cell-based. How it is done:
as §1, §2, §3

The subject of test [4] is MO-induced pain in TRPV1-/- mice. Put plainly: Mustard oil injection in TRPV1-/- mice. The test is classed as in vivo, mouse. The protocol: (§4) Mice were placed in a transparent plastic box (4.5×5×10 cm) on a metal mesh and acclimatized for 30 minutes prior to testing. Each mouse was tested more than 5 times at a specific force manually, and the threshold was determined by the lowest force needed to elicit responses more than 50% of the time.
Mice were injected intradermally in the hind paw with 6 μL of 0.2% mustard oil (Sigma-Aldrich 377430) with Hamilton needles (80300). The mice were placed in a plexiglass cylinder, and the total time spent licking and flinching was recorded for the first 10 minutes after injection. Thirty and sixty minutes after injection, the mice were assayed with von Frey filaments for mechanical hyperalgesia.
The sequence from the last 28 amino acids of the C-terminus of the Tmem100-3Q mutant protein was synthesized and myristoylated at its N-terminus (myr-[…]-COOH) (SEQ ID NO: 8) by Twentyfirst Century Biochemicals. […] For the calcium imaging assay, the peptides were added to the calcium imaging buffer with a final concentration of 200 nM and incubated for at least […] at room temperature. For the mice behavioral assays, the peptides (5 μL, 2 mM) were injected subcutaneously in the hindpaw at least 30 minutes before testing. For the rat behavior assays, human T100-3Q (h-T100), a palmitoylated cell permeable peptide mutated based on the C terminus of human sequence in Tmem100, was applied. […]

Test [5] deals with paclitaxel (Taxol)-induced mechanical hyperalgesia in wild-type mice. Put plainly: Paclitaxel-induced mechanical hyperalgesia. The note with it: day 7 post paclitaxel; intradermal injection of T100-Mut. It is filed as in vivo, mouse. How it is done: as §4
Mice were injected with paclitaxel (Sigma T7191) intraperitoneally at the dose of 6 mg/kg, as previously described (Materazzi et al., 2012). Seven days after paclitaxel injection, the mice were assayed with Von Frey methods for mechanical hyperalgesia, both before and four hours after injection of cell permeable peptides.

Test [6] deals with ongoing neuropathic pain in SNL rats. Put plainly: Conditioned place preference test for ongoing pain in SNL rats. The note with it: i.p. The test is classed as in vivo, rat. An excerpt:
Ongoing, or spontaneous, pain, which is most bothersome to patients, is difficult to treat and difficult to study in animals. The conditioned place preference test has been successfully developed to reveal the presence of non-evoked, ongoing pain and pain relief based on the preference of an animal for the context paired with a pain-relief treatment. The conditioned place preference can also capture the aversive aspects of pain. Strikingly, many studies have shown that the rodent conditioned place preference test accurately reflects the effectiveness of human clinical treatments. Therefore, this test is a powerful approach to investigate the potential effectiveness of new treatments and mechanisms for relief of ongoing pain. Two previous studies have examined the role of TRPA1 in ongoing pain by the conditioned place preference test. […] Because the antagonists used in those studies (HC030031 and Chem5861528) target TRPA1 monomers, it is possible that T100-Mut can inhibit ongoing pain by modulating the TRPA1/V1 complex. This possibility was tested in rodents with SNL-induced ongoing pain using the conditioned place preference test. […] Systemic administration of gabapentin, an analgesic that is known to alleviate neuropathic pain, was used as a positive control (FIG. 16B).

The target in test [7] is TRPA1 (expressed in heterologous cells: CHO, HEK293T). Put plainly: cell-based or functional assay.
Sequence of TRPA1 (expressed in heterologous cells: CHO, HEK293T) (Q8BLA8 whole entry): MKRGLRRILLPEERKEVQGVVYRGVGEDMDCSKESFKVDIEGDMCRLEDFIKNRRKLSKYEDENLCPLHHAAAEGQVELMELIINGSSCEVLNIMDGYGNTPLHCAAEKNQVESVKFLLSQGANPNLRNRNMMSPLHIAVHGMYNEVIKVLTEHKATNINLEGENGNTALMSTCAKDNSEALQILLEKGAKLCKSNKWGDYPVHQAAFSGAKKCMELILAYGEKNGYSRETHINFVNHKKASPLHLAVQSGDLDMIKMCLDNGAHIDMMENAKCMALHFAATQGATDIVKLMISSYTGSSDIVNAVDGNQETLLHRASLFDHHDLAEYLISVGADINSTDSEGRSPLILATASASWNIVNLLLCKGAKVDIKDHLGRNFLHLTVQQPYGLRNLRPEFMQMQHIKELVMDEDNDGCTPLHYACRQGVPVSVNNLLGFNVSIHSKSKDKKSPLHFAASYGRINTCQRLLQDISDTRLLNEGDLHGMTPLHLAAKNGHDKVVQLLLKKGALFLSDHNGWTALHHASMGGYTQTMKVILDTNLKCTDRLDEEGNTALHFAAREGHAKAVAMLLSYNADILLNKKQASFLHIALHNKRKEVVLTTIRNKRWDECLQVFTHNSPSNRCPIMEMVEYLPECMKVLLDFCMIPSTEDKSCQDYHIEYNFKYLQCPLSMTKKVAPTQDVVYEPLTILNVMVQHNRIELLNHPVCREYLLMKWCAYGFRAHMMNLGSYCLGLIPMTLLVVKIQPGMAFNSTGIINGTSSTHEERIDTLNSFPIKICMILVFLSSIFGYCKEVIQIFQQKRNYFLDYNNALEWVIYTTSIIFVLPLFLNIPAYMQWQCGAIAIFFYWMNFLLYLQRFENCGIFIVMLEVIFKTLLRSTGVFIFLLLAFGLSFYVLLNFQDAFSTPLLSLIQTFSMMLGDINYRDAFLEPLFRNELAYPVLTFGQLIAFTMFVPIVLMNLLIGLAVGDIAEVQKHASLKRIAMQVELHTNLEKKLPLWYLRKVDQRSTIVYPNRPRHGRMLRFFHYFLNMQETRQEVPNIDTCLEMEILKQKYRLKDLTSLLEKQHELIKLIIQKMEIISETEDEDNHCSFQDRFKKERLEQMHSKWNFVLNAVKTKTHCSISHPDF

For the compound `O=CC=Cc1ccccc1` [CA, cinnamaldehyde, reference compound], the EC50 at TRPA1 [1] (cells expressing A1+V1) turned out to be 57 µM; on TRPA1 [1] (cells expressing A1+V1+Tmem100), 21 µM.
Consider `CC(C)c1ccc(NC(=O)Cn2cnc3c2c(=O)n(C)c(=O)n3C)cc1` [HC-030031, reference compound], for which the “contralateral PWT after drug injection” value in test [2] (intrathecal 10 μl) is “did not change significantly”. Also, in test [2] (intrathecal 10 μl, h-T100 10-100 μM, HC-030031 10-200 μM, scrambled 100 μM), the “ipsilateral paw withdrawal threshold (PWT) vs pre-drug” value is “increased”. In test [2] (intrathecal, 10 μl, SNL rats, read-out: EC50 for inhibiting pain), the EC50 was 58.2 µM.
With `CCCCCCCCCCCCCC(=O)N[C@@H](Cc1c[nH]c2ccccc12)C(=O)N[C@@H](CCCCN)C(=O)N[C@H](C(=O)N[C@@H](CCCNC(=N)N)C(=O)N[C@@H](CCC(N)=O)C(=O)N[C@@H](CCCNC(=N)N)C(=O)N[C@@H](CC(N)=O)C(=O)N[C@@H](CCCCN)C(=O)N[C@@H](CCCCN)C(=O)N[C@H](C(=O)N[C@@H](CCC(N)=O)C(=O)N[C@@H](CCC(N)=O)C(=O)N[C@@H](CCC(N)=O)C(=O)N[C@@H](CCC(=O)O)C(=O)N[C@@H](CO)C(=O)N[C@@H](CCC(N)=O)C(=O)N[C@H](C(=O)N[C@@H](C)C(=O)N[C@@H](CC(C)C)C(=O)N[C@H](C(=O)N[C@H](C(=O)N[C@@H](CC(N)=O)C(=O)N[C@@H](CCC(N)=O)C(=O)N[C@@H](CCCNC(=N)N)C(=O)N[C@@H](CS)C(=O)N[C@@H](CC(C)C)C(=O)N[C@@H](Cc1ccccc1)C(=O)N[C@@H](C)C(=O)O)C(C)C)C(C)C)[C@@H](C)O)C(C)C)C(C)C` [T100-Mut] (Myristoyl-WKVRQRNKKVQQQESQTALVVNQRCLFA-OH), the “reduction in the percentage of cells responding to MO” value with TRPA1 [3] (heterologous system, T100-Mut treatment vs scrambled) was determined as 65%. Moreover, the “percentage of cells responsive to MO” value in the test on TRPA1 [3] (peptide 200 nM pre-treatment, 500 nM MO, HEK293T TRPA1+TRPV1) is recorded as 6±2.4%. In test [4], the “MO-induced acute pain in TRPV1-/- mice” value was “did not perturb; also recorded: no effect” and the “MO-induced mechanical hyperalgesia in TRPV1-/- mice” value is “did not perturb; also recorded: no effect”. In test [2] (SNL rats, intrathecal), the “efficacy and potency of inhibiting neuropathic pain compared with HC-030031” value was “comparable or better efficacy and potency”. The EC50 in test [2] (rat, in vivo) came to 29.3 µM. Also, the paclitaxel-induced mechanical hyperalgesia result in test [5] is “attenuated; also recorded: alleviated”.
Regarding `NCC1(CC(=O)O)CCCCC1` [gabapentin, reference compound], the “conditioned place preference: time in gabapentin-paired chamber, SNL rats” value in test [6] (60 mg/kg, saline-paired chamber as comparison) is listed as “significantly increased”. Also, the “chamber preference in sham-operated rats” value in test [6] (gabapentin 60 mg/kg, sham-operated) was “did not induce chamber preference”.
In test [7], “TRPV1 (expressed in heterologous cells: CHO, HEK293T) (receptor)” returned an MO (10 µM)-evoked Ca2+ influx, CHO cells, with Tmem100-3Q co-expressed (1:1:4) of 321 nM; an MO (10 µM)-gated whole-cell current density, CHO cells, with Tmem100-3Q co-expressed (1:1:4) of 39.2 pA/pF; an MO (10 µM)-induced single-channel activity (NPo), CHO cells, with Tmem100-3Q co-expressed (1:1:4) of 0.16; an MO (10 µM)-induced single-channel activity (NPo), CHO cells, with wild-type Tmem100 co-expressed (1:1:4) of 1.05.
